The first test has as its target Endothelial lipase (EL) (Homo sapiens (Human), UniProt Q9Y5X9). Description: Endothelial lipase (EL) enzymatic assay with fluorescent substrate A10070 in DMPG vesicles. The class given is biochemical.
Conditions: not given
How it is done: Endothelial lipase (EL) and hepatic lipase (HL) activities were measured using a fluorescent substrate, A10070, (Invitrogen, CA) doped into an artificial vesicle containing DMPG (Avanti Polar Lipids) as the excipient. Vesicles were prepared by combining 571 μL of 29 mM DMPG in a 1:1 mixture of MeOH and CHCl3 with 2000 μL of 1 mM A10070 in a 1:1 mixture of MeOH and CHCl3. The mixture was dried under nitrogen in multiple vials then resuspended in 20 mL total volume of 50 mM HEPES pH 8.0 buffer containing 50 mM NaCl and 0.2 mM EDTA. The sample was allowed to sit at room temperature for 15 min and then was sonicated 3×4 mins on ice with a Branson Sonicator using duty cycle 1. This preparation provides vesicles with a mole fraction of 0.11 for the FRET substrate.
The enzymatic assay was measured using 384-well white Optiplates. Each well contained 20 μL of assay buffer (50 mM HEPES pH 8.0, 50 mM NaCl and 1 mM CaCl2) and 0.25 μL of a DMSO solution containing a compound of interest. EL or HL (10 μL) was added and allowed to incubate with the compound for 30 min at 37° C. The source of EL was conditioned media obtained from HT-1080 cells that were transformed using RAGE technology (Athersys) to overexpress endogenous EL, and HL was partially purified from conditioned media obtained from COS cells overexpressing HL. The reaction was started by the addition of 10 μL of a 1:10 dilution of vesicles. The final total reaction volume was […]. The reaction rates were measured on a Gemini plate reader with an excitation wavelength of 490 nm and an emission wavelength of 530 nm. Readings were taken over a period of 60 minutes, and the slope between 300 and 900 secs of the readout was used to calculate the rate of the reaction.
Sequence of Endothelial lipase (EL) (Q9Y5X9 21-500): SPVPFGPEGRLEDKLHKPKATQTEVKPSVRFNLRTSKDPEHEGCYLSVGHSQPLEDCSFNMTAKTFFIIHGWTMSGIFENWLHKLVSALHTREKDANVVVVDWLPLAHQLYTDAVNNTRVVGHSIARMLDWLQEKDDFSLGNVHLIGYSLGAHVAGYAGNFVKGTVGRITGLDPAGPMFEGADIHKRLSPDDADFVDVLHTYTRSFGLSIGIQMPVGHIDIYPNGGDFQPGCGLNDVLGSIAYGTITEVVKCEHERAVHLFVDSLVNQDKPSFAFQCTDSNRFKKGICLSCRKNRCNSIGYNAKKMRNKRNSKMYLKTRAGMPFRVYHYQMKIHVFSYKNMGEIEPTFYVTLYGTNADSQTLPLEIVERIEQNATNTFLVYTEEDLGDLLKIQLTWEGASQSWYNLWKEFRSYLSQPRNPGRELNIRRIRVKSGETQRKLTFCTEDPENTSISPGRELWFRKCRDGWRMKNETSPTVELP
For `CCOc1ncccc1-c1ccc2nc(C(C(=O)NCC(=O)NC3CC3)S(=O)(=O)CCOC)sc2c1` (stereo not drawn) [Example 293, N-[(cyclopropyl-carbamoyl)methyl]-2-[6-(2-ethoxypyridin-3-yl)-1,3-benzothiazol-2-yl]-2-(2-methoxyethane-sulfonyl)acetamide], the IC50 (as a rule, the concentration that inhibits the measured activity by half) turned out to be 33 nM.
The same measure, in the same setting: the figure for `Cc1cc2nc(C(C(=O)NCC(=O)NC3CC3)S(=O)(=O)C(C)C)sc2cc1-c1ccc2cnn(C)c2c1` (stereo not drawn) [Example 260, N-[(cyclopropyl-carbamoyl)methyl]-2-[5-methyl-6-(1-methyl-1H-indazol-6-yl)-1,3-benzothiazol-2-yl]-2-(propane-2-sulfonyl)acetamide] is 7 nM.
On the same count and under the same terms, the same measure for `COCCS(=O)(=O)C(C(=O)NCC(=O)NCC1CC1)c1nc2cc(-c3ccc(F)nc3)ccc2s1` (stereo not drawn) [Example 389, N-{[(cyclopropyl-methyl)carbamoyl]methyl}-2-[5-(6-fluoropyridin-3-yl)-1,3-benzothiazol-2-yl]-2-(2-methoxyethane-sulfonyl)acetamide]: 59 nM; for `COCCS(=O)(=O)C(C(=O)NCC(=O)NC1CC1)c1nc2ccc(-c3ccc(C(=O)N4CCOCC4)cc3)cc2s1` (stereo not drawn) [Example 309, N-[(cyclopropyl-carbamoyl)methyl]-2-(2-methoxyethane-sulfonyl)-2-{6-[4-(morpholine-4-arbonyl)phenyl]-1,3-benzothiazol-2-yl}acetamide]: 50 nM.
The same measure, in the same setting: the same measure for `COC(=O)Nc1ccc(-c2cc3nc(C(C(=O)NCC(=O)NCCOC(C)C)S(C)(=O)=O)sc3cc2F)cc1F` (stereo not drawn) [Example 363, methyl N-[2-fluoro-4-(6-fluoro-2-{methanesulfonyl [({[2-(propan-2-yloxy)ethyl]carbamoyl}methyl)carbamoyl]methyl}-1,3-benzothiazol-5-yl)phenyl]carbamate]: 11 nM; for `COCCS(=O)(=O)C(C(=O)NCC(=O)NC1(c2ncon2)CC1)c1nc2ccc(-c3ccc(F)nc3)cc2s1` (stereo not drawn) [Example 391, 2-[6-(6-fluoropyridin-3-yl)-1,3-benzothiazol-2-yl]-2-(2-methoxyethane-sulfonyl)-N-({[1-(1,2,4-oxadiazol-3-yl)cyclopropyl]carbamoyl}methyl) acetamide]: 68 nM.
On to `Cc1cnn(-c2cccc(-c3ccc4nc(C(C(=O)NCC(=O)NC5CC5)S(C)(=O)=O)sc4c3)n2)c1` (stereo not drawn) [Example 413, N-[(cyclopropyl-carbamoyl)methyl]-2-methanesulfonyl-2-{6-[6-(4-methyl-1H-pyrazol-1-yl)pyridin-2-yl]-1,3-benzothiazol-2-yl}acetamide], for which the IC50 is 7 nM.
`O=C(CNC(=O)C(c1nc2cc(F)c(-c3cncnc3)cc2s1)S(=O)(=O)c1cccc(-c2cncnc2)c1)NC1CC1` (stereo not drawn) [Example 446, N-[(cyclopropyl-carbamoyl)methyl]-2-[5-fluoro-6-(pyrimidin-5-yl)-1,3-benzothiazol-2-yl]-2-[3-(pyrimidin-5-yl)benzenesulfonyl] acetamide] yielded an IC50 of 78 nM.
Still for that read-out and setting: the same measure for `O=C(CNC(=O)C(c1nc2cc(F)c(-c3ccn(Cc4ccccc4)c(=O)c3)cc2s1)S(=O)(=O)CCC(F)(F)F)NC1CC1` (stereo not drawn) [Example 136, 2-[6-(1-benzyl-2-oxo-1,2-dihydropyridin-4-yl)-5-fluoro-1,3-benzothiazol-2-yl]-N-[(cyclopropyl-carbamoyl)methyl]-2-(3,3,3-trifluoropropane-sulfonyl) acetamide]: 6 nM; for `Cc1ccn(-c2cccc(-c3ccc4nc(C(C(=O)NCC(=O)NC5CC5)S(C)(=O)=O)sc4c3)n2)n1` (stereo not drawn) [Example 412, N-[(cyclopropyl-carbamoyl)methyl]-2-methanesulfonyl-2-{6-[6-(3-methyl-1H-pyrazol-1-yl)pyridin-2-yl]-1,3-benzothiazol-2-yl}acetamide]: 14 nM.
Compound `COCCS(=O)(=O)C(C(=O)NCC(=O)NC1CC1)c1nc2cc(-c3cncc(F)c3)ccc2s1` (stereo not drawn) [Example 75, N-[(cyclopropyl-carbamoyl)methyl]-2-[5-(5-fluoropyridin-3-yl)-1,3-benzothiazol-2-yl]-2-(2-methoxyethane-sulfonyl) acetamide] had an IC50 of 31 nM. Against the preceding compound, the IC50 is about 2.2-fold higher.
Compound `COCCS(=O)(=O)C(C(=O)NCC(=O)NC1CC1)c1nc2ccc(-c3ccc(C(=O)N4CC(F)C4)cc3)cc2s1` (stereo not drawn) [Example 404] returned an IC50 of 10 nM.
Still for that read-out and setting: the same measure for `COCCS(=O)(=O)C(C(=O)NCC(=O)NC1CC1)c1nc2cc(Cl)c(-c3cncnc3)cc2s1` (stereo not drawn) [Example 112, 2-[5-chloro-6-(pyrimidin-5-yl)-1,3-benzothiazol-2-yl]-N-[(cyclopropyl-carbamoyl)methyl]-2-(2-methoxyethane-sulfonyl)acetamide]: 97 nM; for `O=C(CNC(=O)C(c1nc2cc(F)c(-c3ccc(NC(=O)OCc4ccccc4)nc3)cc2s1)S(=O)(=O)C1CC1)NC1CC1` (stereo not drawn) [Example 556, benzyl N-(5-{2-[(cyclopropane-sulfonyl) ({[(cyclopropyl-carbamoyl)methyl]carbamoyl)methyl]-5-fluoro-1,3-benzothiazol-6-yl}pyridin-2-yl) carbamate]: 15 nM; for `COCCS(=O)(=O)C(C(=O)NCC(=O)Nc1ccccc1)c1nc2ccc(-c3ccc(F)nc3)cc2s1` (stereo not drawn) [Example 383, 2-[6-(6-fluoropyridin-3-yl)-1,3-benzothiazol-2-yl]-2-(2-methoxyethane-sulfonyl)-N-[(phenyl-carbamoyl)methyl]acetamide]: 3 nM.
On the same count and under the same terms, the figure for `CC(=O)NCc1ccc(-c2ccc3sc(C(C(=O)NCC(=O)NC4CC4)S(=O)(=O)c4ccccc4)nc3c2)cc1` (stereo not drawn) [Example 436, 2-(benzenesulfonyl)-N-[(cyclopropyl-carbamoyl)methyl]-2-{5-[4-(acetamidomethyl)phenyl]-1,3-benzothiazol-2-yl} acetamide] is 13 nM.
Compound `COCCNC(=O)CNC(=O)C(c1nc2cc(-c3ccc(F)nc3)ccc2s1)S(=O)(=O)CCOC` (stereo not drawn) [Example 390, 2-[5-(6-fluoropyridin-3-yl)-1,3-benzothiazol-2-yl]-2-(2-methoxyethane-sulfonyl)-N-{[(2-methoxyethyl)carbamoyl]methyl} acetamide] returned an IC50 of 102 nM.
The compound `COCCS(=O)(=O)C(C(=O)NCC(=O)NC1CC1)c1nc2cc(F)c(-c3ccc(-n4ccnc4)cc3)cc2s1` (stereo not drawn) [Example 581, N-[(cyclopropyl-carbamoyl)methyl]-2-{5-fluoro-6-[4-(1H-imidazol-1-yl)phenyl]-1,3-benzothiazol-2-yl}-2-(2-methoxyethane-sulfonyl)acetamide] came in with an IC50 of 36 nM.
The compound `O=C(CNC(=O)C(c1nc2cc(F)c(-c3ccc(NC(=O)OCc4ccccc4)cc3)cc2s1)S(=O)(=O)CCCC(F)(F)F)NC1CC1` (stereo not drawn) [Example 46, benzyl N-{4-[2-({[(cyclopropyl-carbamoyl)methyl]carbamoyl}(4,4,4-trifluorobutane-sulfonyl)methyl)-5-fluoro-1,3-benzothiazol-6-yl]phenyl}carbamate] returned an IC50 of 2 nM.
For `COCCS(=O)(=O)C(C(=O)NCC(=O)NC1CC1)c1nc2cc(-c3ccc(NC(=O)OC)cc3)ccc2s1` (stereo not drawn) [Example 104, methyl N-{4-[2-({[(cyclopropyl-carbamoyl)methyl]carbamoyl}(2-methoxyethane-sulfonyl)methyl)-1,3-benzothiazol-5-yl]phenyl} carbamate], the IC50 amounted to 28 nM. This IC50 lies about 14-fold higher than the previous one.
For `COCCS(=O)(=O)C(C(=O)NCC(=O)NC1CC1)c1nc2cc(F)c(-c3ccc4c(=O)n(C)ccc4c3)cc2s1` (stereo not drawn) [Example 153, N-[(cyclopropyl-carbamoyl)methyl]-2-[5-fluoro-6-(2-methyl-1-oxo-1,2-dihydro-isoquinolin-6-yl)-1,3-benzothiazol-2-yl]-2-(2-methoxyethane-sulfonyl) acetamide], the IC50 turned out to be 3 nM.
Still for that read-out and setting: the figure for `CC(C)S(=O)(=O)C(C(=O)NCC(=O)NC1CC1)c1nc2cc(-c3ccc(C(=O)N4CCC4)cc3)c(F)cc2s1` (stereo not drawn) [Example 277, 2-{5-[4-(azetidine-1-carbonyl)phenyl]-6-fluoro-1,3-benzothiazol-2-yl}-N-[(cyclopropyl-carbamoyl)methyl]-2-(propane-2-sulfonyl)acetamide] is 13 nM; for `COCCS(=O)(=O)C(C(=O)NCC(=O)NC1CC1)c1nc2cc(F)c(-c3ccc(-c4nn[nH]n4)c(F)c3)cc2s1` (stereo not drawn) [Example 420, N-[(cyclopropyl-carbamoyl)methyl]-2-{5-fluoro-6-[3-fluoro-4-(2H-1,2,3,4-tetrazol-5-yl)phenyl]-1,3-benzothiazol-2-yl}-2-(2-methoxyethane-sulfonyl)acetamide] it is 11 nM.

The same test, now with this note: EL from conditioned media of HT-1080 cells; 30 min preincubation at 37° C.
Compound `COC(=O)Nc1ccc(-c2cc3sc(C(C(=O)NCC(=O)NC4CC4)S(C)(=O)=O)nc3cc2F)cc1OC` (stereo not drawn) [Example 538, Methyl N-{4-[2({[(cyclopropylcarbamoyl)methyl]carbamoyl}(methanesulfonyl)methyl)-5-fluoro-1,3-benzothiazol-6-yl]-2-methoxyphenyl}carbamate] came in with an IC50 of 4.5 nM. This counts as single-digit nanomolar.

These data come from US10173991B2, “Sulfone amide linked benzothiazole inhibitors of endothelial lipase” (BRISTOL-MYERS SQUIBB COMPANY, priority 2014, dated 2019).
